According to patent publication EP1143981B1, “USE OF N-GLYCOLNEURAMINIC ACID AND ITS DERIVATIVES FOR THE MANUFACTURE OF A MEDICAMENT FOR THE TREATMENT OF HIV INFECTIONS” (Glukor, Inc., priority 1998, dated 2000):

What was measured:
Format in all cases: cell-based
in vitro = conditions: human, cem-ss cells
Experimental: Cell Preparation: Prior to infection, CEM-SS cells were grown in complete tissue culture medium (RPMI 1640 medium with 10% heat-inactivated fetal bovine serum, 2mM L-glutamine, 100 U/mL penicillin, 100 µg/mL streptomycin, 10 µg/mL gentamycin) and transferred to T-150 flasks. On the day preceding the assay, the cells were split 1:2 to assure the cells would be in an exponential growth phase at time of infection. On the day of assay, the cells were washed twice with tissue culture medium and resuspended in fresh tissue culture medium. Total cell and viability counting were performed using a hemacytometer and trypan blue dye exclusion. Cell viability was greater than 95% for the cells to be utilized in the assay. […]
(§1) Tetrazolium dye staining of screening plates: After 6 days of incubation (37°C with 5% CO2), the test plates were analyzed by staining with the tetrazolium dye XTT (2,3-b (2-methoxy-4-nitro-5-sulfophenyl)-2H-tetrazolium -5-carboxanilide). XTT-tetrazolium is metabolized by mitochondrial enzymes of metabolically active cells to a soluble formazan product, allowing the rapid quantitative analysis of the inhibition of HIV-induced cell killing by anti-HIV compounds. […] Plates were sealed with adhesive plate sealers and inverted several times to mix the soluble formazan product and the plate was read spectrophotometrically at 450nm with a Molecular Devices Vmax plate reader. […]

PBMCs = conditions: human
Experimental: Fresh human PBMCs were isolated from voluntary Red Cross donors, seronegative for HIV and HBV. Leukophoresed blood was diluted 1:1 with Dulbecco's PBS, layered over 14 mL of Ficoll-Hypaque density gradient in a 50mL centrifuge and then centrifuged for 30 minutes at 600 x g. Banded PBMCs were gently aspirated from the resulting interface and subsequently washed twice with PBS by low speed centrifugation. […] PBMCs were maintained in this medium at a concentration of 1-2 x 10^6 cells/mL with bi-weekly medium changes until used in the assay. […]
as §1, with “reader. Indices such as %CPE Reduction (cytopathic effects), %Cell Viability, IC25, IC50, IC95, TC25, TC50, and TC95 and other indices were calculated.” for “reader.”

X4 strain LAI/IIIB = assay: RT activity in infected PBMCs over 20 days post-infection
Experimental: Reverse Transcriptase Activity Assay: A microtiter based reverse transcriptase (RT) reaction was utilized as described by Buckheit et al., (1991), AIDS Research and Human Retroviruses, 7:295-302. Tritiated thymidine triphosphate (^3H-TTP) was suspended in distilled H2O at 5 Ci/mL. Poly rA and oligo dT were prepared as a stock solution which was kept at -20°C. RT reaction buffer was prepared fresh on a daily basis and contained 125 µL 1M EGTA, 125 µL dH2O, 110 µL 10% SDS, 50 µL 1M Tris (pH 7.4), 50 µL 1M DTT, and 40 µL 1M MgCl2. These three solutions were mixed together in a ratio of 2 parts ^3H-TTP, 1 part poly rA:oligo dT, and 1 part reaction buffer. Ten microliters of this reaction mixture were placed in a round bottom microtiter plate and 15 µL of virus containing supernatant were added and mixed. The plate was incubated at 37°C in a water bath with a solid support to prevent submersion of the plate and incubated for 60 minutes. After the incubation period, the reaction volume was spotted onto pieces of DE81 paper, washed 5 times for 5 minutes each in a 5% sodium phosphate buffer, 2 times for 1 minute each in distilled water, 2 times for 1 minute each in 70% ethanol, and then dried. Opti-Fluor-O (Packard) was added to each sample and incorporated radioactivity was quantified utilizing a Wallac 1450 MicroBeta Plus liquid scintillation counter. Plates were screened with tetrazolium dye staining as described above.
PBMCs were treated with dilutions of LUKOR of 1:4, 1:20, 1:100, 1:500, or 1:2500, or concentrations ofN-glycolylneuraminic acid or N-acetylneuraminic acid of 0.4, 1.2, 3.6, 11, or 33µg/ml. No carbohydrates were added to the control sample. RT activity was determined at 3, 6, 9,13, 17, and 20 days post-infection (PI) with X4 strain LAI/IIIB.

Question: With `O=C(CO)N[C@H]1[C@H]([C@H](O)[C@H](O)CO)OC(O)(C(=O)O)C[C@@H]1O` (stereo partly drawn) [N-glycolylneuraminic acid] as the compound, how does the CC50 at 144 h (in vitro) read?
Answer: > 1000 µM

Question: And the CC50 (PBMCs)?
Answer: > 1000 µM

Question: And the “RT Activity” value (X4 strain LAI/IIIB; 0.4 µg/ml, 3 days PI)?
Answer: 53

Question: What about the “RT Activity” value (X4 strain LAI/IIIB; 0.4 µg/ml, 6 days PI) of the same compound?
Answer: 113

Question: What about the “RT Activity” value (X4 strain LAI/IIIB; 0.4 µg/ml, 9 days PI) of the same compound?
Answer: 1342

Question: What about the “RT Activity” value (X4 strain LAI/IIIB; 0.4 µg/ml, 13 days PI) of the same compound?
Answer: 1371

Question: And the “RT Activity” value (X4 strain LAI/IIIB; 0.4 µg/ml, 17 days PI)?
Answer: 1509

Question: And the “RT Activity” value (X4 strain LAI/IIIB; 0.4 µg/ml, 20 days PI)?
Answer: 1250

Question: And the “RT Activity” value (X4 strain LAI/IIIB; 3.6 µg/ml, 3 days PI)?
Answer: 45

Question: What about the “RT Activity” value (X4 strain LAI/IIIB; 3.6 µg/ml, 6 days PI) of the same compound?
Answer: 44

Question: And the “RT Activity” value (X4 strain LAI/IIIB; 3.6 µg/ml, 9 days PI)?
Answer: 139

Question: What about the “RT Activity” value (X4 strain LAI/IIIB; 3.6 µg/ml, 13 days PI) of the same compound?
Answer: 428

Question: And the “RT Activity” value (X4 strain LAI/IIIB; 3.6 µg/ml, 17 days PI)?
Answer: 1262

Question: And the “RT Activity” value (X4 strain LAI/IIIB; 3.6 µg/ml, 20 days PI)?
Answer: 616

Question: And the “RT Activity” value (X4 strain LAI/IIIB; 11 µg/ml, 3 days PI)?
Answer: 40

Question: And the “RT Activity” value (X4 strain LAI/IIIB; 11 µg/ml, 6 days PI)?
Answer: 75

Question: And the “RT Activity” value (X4 strain LAI/IIIB; 11 µg/ml, 9 days PI)?
Answer: 956

Question: What about the “RT Activity” value (X4 strain LAI/IIIB; 11 µg/ml, 13 days PI) of the same compound?
Answer: 2544

Question: What about the “RT Activity” value (X4 strain LAI/IIIB; 11 µg/ml, 17 days PI) of the same compound?
Answer: 3261

Question: And the “RT Activity” value (X4 strain LAI/IIIB; 11 µg/ml, 20 days PI)?
Answer: 1411

Question: And the “RT Activity” value (X4 strain LAI/IIIB; 33 µg/ml, 3 days PI)?
Answer: 32

Question: What about the “RT Activity” value (X4 strain LAI/IIIB; 33 µg/ml, 6 days PI) of the same compound?
Answer: 75

Question: What about the “RT Activity” value (X4 strain LAI/IIIB; 33 µg/ml, 9 days PI) of the same compound?
Answer: 567

Question: What about the “RT Activity” value (X4 strain LAI/IIIB; 33 µg/ml, 13 days PI) of the same compound?
Answer: 1103

Question: And the “RT Activity” value (X4 strain LAI/IIIB; 33 µg/ml, 17 days PI)?
Answer: 2356

Question: What about the “RT Activity” value (X4 strain LAI/IIIB; 33 µg/ml, 20 days PI) of the same compound?
Answer: 2917

Question: And the “RT activity in treated cells (summary in words)” value (X4 strain LAI/IIIB; all dilutions/concentrations, 3-20 days PI)?
Answer: RT activity was decreased
